This passage reports inhibition results from ChEMBL document CHEMBL2094260, “Malaria Box Tuberculosis Screening Data”.

Test [1] relates to Mycobacterium tuberculosis. Put plainly: MMV: Screen against Mtb, single point, non replicating, at 25uM. Format: functional.
Test [2] has as its system Mycobacterium tuberculosis. As to the kind of experiment: MMV: Screen against Mtb, single point, replicating, at 25uM. Format: functional.

Each structure is given as a SMILES string.

As to `CCCCCC(=O)N1c2ccccc2N=C2CC(c3ccc(OC)c(OC)c3)CC(O)=C2C1c1ccc(C(F)(F)F)cc1` (configuration not stated), the inhibition at 25 µM in test [1] worked out at 16%; in test [2] it was 12.5%.
As for `CCCc1c(CC)c(=N)c2ccccc2n1C`, the inhibition at 25 µM in test [1] turned out to be 4%; in test [2] it was 16%.
As to `CCOC(=O)c1ccc2nc(-c3ccccc3)cc(O)c2c1`, the inhibition at 25 µM in test [1] stood at 15.5%; in test [2], 14.6%.
The matching figures for `CCCn1c(=N)c(C(=O)NC2CCCCC2)cc2c(=O)n3cccc(C)c3nc21`: 2.38% and -4.62%.
For `CCOC(=O)c1c(C)n(-c2ccccc2)c2ccc(OC(=O)c3cc(OC)c(OC)c(OC)c3)cc12`, the figures for the inhibition at 25 µM in test [1] and in test [2] were 6.46% and 22.2%, respectively.
Regarding `CCOc1cc(Br)c(C(C)NC(=O)c2cccc(OC)c2)cc1OCC` (configuration not stated), the inhibition at 25 µM in test [1] stood at 5.22%; in test [2], 11.9%.
With `CCOc1ccc(/C=C/c2nc(=O)c3ccccc3o2)cc1`, the inhibition at 25 µM in test [1] is 12%; in test [2], 18.9%.
Turning to `Cc1ccc(CSCc2ccc(C(=O)NC3CC3)o2)cc1`, the inhibition at 25 µM in test [1] was 11.3%; in test [2], 24.4%.
On the same counts, the results for `CN(C)c1ccc(N2C(N)=NC(N)=NC2(C)C)cc1` are 1.21% and 2.64%.
The matching figures for `COc1ccc(C(=O)Nc2nonc2-c2ccc(OC)c(OC)c2)cc1Cl`: 5.57% and 3.86%.
The matching figures for `O=C1c2ccccc2C2=Nc3ccccc3SC(c3cccc(F)c3)C12` (configuration not stated): -5.43% and 7.45%.
Turning to `CCOc1cc2c(cc1OCC)C(c1cc(C)c(O)c(C)c1)NCC2` (configuration not stated), the results for the inhibition at 25 µM in test [1] and in test [2] were 11.5% and 10.8%, respectively.
For the compound `CCC1(C)CC(CCNCc2ccccc2O)(c2ccc(C)cc2)CCO1` (configuration not stated), the inhibition at 25 µM in test [1] worked out at 2.96%; in test [2], 14.5%.
For `CCCN(CCC)CC(O)COc1ccccc1C(=O)Nc1ccccc1` (configuration not stated), the inhibition at 25 µM in test [1] is 17.1%; in test [2], 20.9%.
With `CSC1=NC(=Nc2c(C)cccc2C)C2(CCC(C(C)(C)C)CC2)N1c1ccc(Cl)cc1` (configuration not stated), the inhibition at 25 µM was found to be 9.94% in test [1] and 1.28% in test [2].
Regarding `CN1C=C(c2ccc3ccccc3n2)C(c2c[nH]c3ccccc23)c2ccccc21` (configuration not stated), the inhibition at 25 µM in test [1] amounted to 20.1%; in test [2], 19.7%.
Take `CN1CCN(c2nc(Nc3ccc(O)cc3)nc3ccccc23)CC1`: the inhibition at 25 µM was 6.46% in test [1] and 8.7% in test [2].
As for `COc1ccccc1NC1=C(N2CCCCC2)C(=O)c2ccccc2C1=O`, the inhibition at 25 µM came out at 24.8% in test [1] and 13.3% in test [2].
For `O=C(NC1CCN(Cc2ccccc2)CC1)c1cc(-c2cccnc2)nc2ccc(Cl)cc12`, the inhibition at 25 µM was determined as 18% in test [1] and 14.3% in test [2].
As for `COc1cc2c(cc1OC)C1=NNC(=O)C1=NC(C)(C)C2`, the inhibition at 25 µM in test [1] was determined as 26.7%; in test [2] it was 11.3%.
On the same counts, the results for `N=c1n(CCN2CCCCC2)c2ccccc2n1CC(O)c1cccc(Br)c1` (configuration not stated) are 12.9% and 16.3%.
The matching figures for `Oc1ccccc1CN1CCC2(CCCN(Cc3ccccc3F)C2)C1` (configuration not stated): 9.59% and 50.6%.
The matching figures for `COc1cccc(C2(C)Nc3ccccc3-c3nc4ccccc4n32)c1` (configuration not stated): 8.19% and 14.9%.
As for `COc1cc(CNCCc2ccc(Cl)cc2)cc(OC)c1O`, the inhibition at 25 µM in test [1] came out at 35.9%; in test [2] it was 0.392%.
Turning to `Cc1sc(NC(=O)c2ccccc2)c(C(c2cccs2)N2CCN(c3ccccc3)CC2)c1C` (configuration not stated), the inhibition at 25 µM is 13% in test [1] and 7.6% in test [2].
The matching figures for `CCCc1cc(O)c2c3c(c(=O)oc2c1)CN(C)CC3`: 14.1% and 16%.
Consider `c1ccc2c(NCCc3c[nH]c4ccccc34)c3ccccc3nc2c1`, for which the inhibition at 25 µM in test [1] came out at 17.8%; in test [2], 47.1%.
Regarding `CCOC(=O)c1c(C)n(-c2ccc(Cl)cc2)c2ccc(OC(=O)C=Cc3ccccc3)cc12`, the inhibition at 25 µM in test [1] was found to be 18.8%; in test [2], 25.1%.
With `CCCCCCC(O)(c1ccc(F)cc1)C(CN1CCOCC1)c1ccccc1` (configuration not stated), the inhibition at 25 µM in test [1] worked out at 19.8%; in test [2], 3.84%.
As to `CC1(c2ccccc2)Nc2ccccc2-c2nc3ccccc3n21` (configuration not stated), the inhibition at 25 µM in test [1] worked out at 12%; in test [2], 8.87%.
Consider `O=C(Nc1ccc(-c2nc3cc(NC(=O)c4ccc(Cl)cc4)ccc3[nH]2)cc1)c1ccc(Cl)cc1`, for which the inhibition at 25 µM stood at 17.6% in test [1] and 11.7% in test [2].
On the same counts, the results for `CC(C)(C)c1ccc(C2CC3=Nc4ccccc4N(C(=O)c4ccccc4Cl)C(c4ccc(F)cc4)C3=C(O)C2)cc1` (configuration not stated) are 14.4% and 1.49%.
For the compound `Nc1ccn([C@@H]2O[C@H](CO)[C@@H](O)[C@H]2O)c(=O)n1` [CYTIDINE], the inhibition at 25 µM was 14.6% in test [1] and -3.06% in test [2].
Regarding `Oc1ccc(Cl)cc1CNc1nc2ccccc2[nH]1`, the inhibition at 25 µM in test [1] was determined as 4.53%; in test [2] it was 38.6%.
With `O=C(Nc1ccc(N2CCCCC2)c(Cl)c1)c1ccc(Br)o1`, the inhibition at 25 µM in test [1] was found to be 11.9%; in test [2] it was 18.9%.
For the compound `Cc1cc(Nc2ccc3ccccc3c2)n2ncnc2n1`, the inhibition at 25 µM in test [1] was 19.9%; in test [2], -2.52%.
The matching figures for `Cc1ccc(Cn2c(N3CCC(C(=O)NCc4cccs4)CC3)nc3ccccc32)cc1`: 5.22% and 44.4%.
On to `Cc1ccc(N2C3c4ccccc4N(S(=O)(=O)c4ccc(C)cc4)C2c2ccccc2N3S(=O)(=O)c2ccc(C)cc2)cc1`, for which the values for the inhibition at 25 µM in test [1] and in test [2] were 18% and 4.16%, respectively.
Consider `CCOC(=O)c1cnc2ccc(OC)cc2c1NCc1ccccc1`, for which the inhibition at 25 µM in test [1] stood at 23%; in test [2], 40.2%.
The matching figures for `OC(Cn1nnc2ccccc21)Cn1c2ccc(Br)cc2c2cc(Br)ccc21` (configuration not stated): -5.78% and 4.62%.
`CC(C)OCc1cc(CN2CCN(c3cccc(Cl)c3)CC2)c(O)c2ncccc12`: the values for the inhibition at 25 µM in test [1] and in test [2] were 11.7% and 9.32%, respectively.
Take `COc1ccc(CCNC(=O)c2cc(S(=O)(=O)N3CC(C)CC(C)C3)ccc2Sc2ccc(F)cc2)cc1OC` (configuration not stated): the inhibition at 25 µM in test [1] was 22.6%; in test [2], -6.51%.
In the case of `O=C(Nc1ccc(CN2CCOCC2)cc1)c1ccc(-c2ccc(Br)cc2)o1`, the inhibition at 25 µM in test [1] came to 24.4%; in test [2], 26%.
Turning to `Cc1ccnc(NC(c2cccc(OCc3ccccc3)c2)c2ccc3cccnc3c2O)c1` (configuration not stated), the inhibition at 25 µM came to 22.3% in test [1] and 6.19% in test [2].
With `Cc1ccccc1OCCSc1nc2ccc(NC(=O)c3cccs3)cc2s1`, the inhibition at 25 µM turned out to be 16.4% in test [1] and 51.3% in test [2].
On to `CN(C)CCNc1cc(-c2ccccc2)nc2ccccc12`, for which the values for the inhibition at 25 µM in test [1] and in test [2] were 6.45% and 6.89%, respectively.
The matching figures for `Cc1ccc2nc(C)cc(Nc3cccc(C(F)(F)F)c3)c2c1`: 10.4% and 39%.
On the same counts, the results for `COc1cccc(Cn2c(Oc3ccccc3)nc3c2c(=O)n(C)c(=O)n3C)c1` are -1.06% and 3.71%.
On the same counts, the results for `Cc1ccc(C(=O)c2oc3ccc4c(C)cc(=O)oc4c3c2C)cc1` are 5.4% and 1.18%.
On to `O=C(Nc1ccccc1O)c1ccc(Oc2cccc(C(=O)Nc3ccccc3O)c2)cc1`, for which the results for the inhibition at 25 µM in test [1] and in test [2] were 11.7% and 11.8%, respectively.
With `CC(C)c1ccc(CNCC(O)c2ccccc2)cc1` (configuration not stated), the inhibition at 25 µM in test [1] turned out to be 11.7%; in test [2] it was 30.9%.
On the same counts, the results for `COc1ccc(C2C(C(=O)Nc3cccc(OC)c3)c3ccccc3C(=O)N2C2CCCCC2)cc1` (configuration not stated) are 29% and 19.5%.
In the case of `COc1ccc(C=C2SC(Nc3ccc(F)cc3)=NC2=O)c(OC)c1`, the inhibition at 25 µM in test [1] was determined as 7.53%; in test [2], 23.3%.
On the same counts, the results for `CCOc1ccc(Nc2ccnc3cc(Cl)ccc23)cc1` are 8.59% and 54.6%.
With `COc1ccc(/C=C2/SC(=Nc3ccccc3)NC2=O)cc1`, the inhibition at 25 µM in test [1] amounted to 24.4%; in test [2] it was 15.9%.
Turning to `CC(C)(C)c1ccc(C(=O)Nc2c3c(nn2-c2cccc(Cl)c2)CSC3)cc1`, the figures for the inhibition at 25 µM in test [1] and in test [2] were -4.72% and -1.02%, respectively.
On to `O=C(NC1CCN(Cc2ccccc2)CC1)c1cc2nc(-c3ccc(Cl)s3)cc(C(F)(F)F)n2n1`, for which the inhibition at 25 µM stood at 15.3% in test [1] and 20.1% in test [2].
For `CC(=O)NCCc1nc2ccccc2n1Cc1ccc(C(C)C)cc1`, the inhibition at 25 µM in test [1] was 8.72%; in test [2] it was 2.04%.
Consider `CCCCN(CCCC)S(=O)(=O)c1ccc(NC(=O)c2ccco2)cc1`, for which the inhibition at 25 µM in test [1] was 6.97%; in test [2] it was 8.56%.
Consider `O=C(c1ccccc1F)N(Cc1ccc(Cl)cc1)c1ccccn1`, for which the inhibition at 25 µM in test [1] was found to be 5.4%; in test [2], 9.78%.
As for `Cc1sc2ncnc(Sc3nc4ccccc4[nH]3)c2c1C`, the figures for the inhibition at 25 µM in test [1] and in test [2] were 22.5% and 14.9%, respectively.
The matching figures for `COc1cccc(NC(=O)[C@H](C(C)C)n2c(=O)[nH]c3ccccc3c2=O)c1`: 5.22% and 7.35%.
On the same counts, the results for `CN(C)CCCNc1c2ccccc2nc2ccccc12` are 17.8% and 18.4%.
Regarding `CCc1c(C)c(=N)c2ccccc2n1C`, the values for the inhibition at 25 µM in test [1] and in test [2] were 2.08% and 4.16%, respectively.
As for `COc1ccccc1N1C(=N)SC(=Cc2ccc(OCc3ccccc3F)cc2)C1=O`, the inhibition at 25 µM in test [1] amounted to 21.4%; in test [2], 8.86%.
As for `COc1ccc2sc(N(Cc3cccnc3)C(=O)c3ccc(C#N)cc3)nc2c1`, the inhibition at 25 µM was determined as 5.22% in test [1] and 15% in test [2].

As usually defined, the inhibition is the change of the read-out against control, counted positive when it falls.
